Tested on: HIV-1 BR/93/021
Test: Anti-HIV efficacy in fresh human PBMCs, reverse transcriptase readout, HIV-1 BR/93/021
Assay type: cell-based
Settings: for TI (TC50/IC50): HIV-1 BR/93/021, PBMCs; for IC50: HIV-1 BR/93/021, fresh human PBMCs, seven days, RT activity
Protocol: Compounds were evaluated for their ability to inhibit HIV replication in fresh human PBMCs. The assay was performed as follows.
Fresh human PBMCs, seronegative for HIV and HBV, were isolated from screened donors (Interstate Blood Bank, Inc. Memphis, Tenn.). Cells were pelleted/washed 2-3 times by low speed centrifugation and re-suspension in PBS to remove contaminating platelets. The Leukophoresed blood was then diluted 1:1 with Dulbecco's Phosphate Buffered Saline (DPBS) and layered over 14 mL of Lymphocyte Separation Medium (LSM; Cellgro® by Mediatech, Inc.; density 1.078+/−0.002 g/ml; Cat.#85-072-CL) in a 50 mL centrifuge tube and then centrifuged for 30 minutes at 600×g. Banded PBMCs were gently aspirated from the resulting interface and subsequently washed 2× with PBS by low speed centrifugation. After the final wash, cells were enumerated by trypan blue exclusion and re-suspended at 1×10^7 cells/mL in RPMI 1640 supplemented with 15% Fetal Bovine Serum (FBS), and 2 mM L-glutamine, 4 μg/mL Phytohemagglutinin (PHA-P, Sigma). The cells were allowed to incubate for 48-72 hours at 37° C. After incubation, PBMCs were centrifuged and resuspended in RPMI 1640 with 15% FBS, 2 mM L-glutamine, 100 U/mL penicillin, 100 μg/mL streptomycin, 10 μg/mL gentamycin, and 20 U/mL recombinant human IL-2 (R&D Systems, Inc). IL-2 is included in the culture medium to maintain the cell division initiated by the PHA mitogenic stimulation. PBMCs were maintained in this medium at a concentration of 1-2×10^6 cells/mL with biweekly medium changes until used in the assay protocol. Cells were kept in culture for a maximum of two weeks before being deemed too old for use in assays and discarded. Monocytes were depleted from the culture as the result of adherence to the tissue culture flask.
For the standard PBMC assay, PHA-P stimulated cells from at least two normal donors were pooled (mixed together), diluted in fresh medium to a final concentration of 1×10^6 cells/mL, and plated in the interior wells of a 96 well round bottom microplate at 50 μL/well (5×10^4 cells/well) in a standard format developed by the Infectious Disease Research department of Southern Research Institute. Pooling (mixing) of mononuclear cells from more than one donor is used to minimize the variability observed between individual donors, which results from quantitative and qualitative differences in HIV infection and overall response to the PHA and IL-2 of primary lymphocyte populations. Each plate contains virus/cell control wells (cells plus virus), experimental wells (drug plus cells plus virus) and compound control wells (drug plus media without cells, necessary for MTS monitoring of cytotoxicity). Since HIV-1 is not cytopathic to PBMCs, this allows the use of the same assay plate for both antiviral activity and cytotoxicity measurements. Test drug dilutions were prepared at a 2× concentration in microtiter tubes and 100 μL of each concentration was placed in appropriate wells using the standard format. 50 μL of a predetermined dilution of virus stock was placed in each test well (final MOI≅0.1). The PBMC cultures were maintained for seven days following infection at 37° C., 5% CO2. After this period, cell-free supernatant samples were collected for analysis of reverse transcriptase activity as a measure of virus release. Following removal of supernatant samples, compound cytotoxicity was measured by addition of MTS to the plates for determination of cell viability. Wells were also examined microscopically and any abnormalities were noted.
A microtiter plate-based reverse transcriptase (RT) reaction was utilized (Buckheit et al., AIDS Research and Human Retroviruses 7:295-302, 1991). Tritiated thymidine triphosphate (3H-TTP, 80 Ci/mmol, NEN) was received in 1:1 dH2O:Ethanol at 1 mCi/mL. […]

[1] = Human immunodeficiency virus 1, PBMC, 168 h

“2-chloro-N-(4-methylphenyl)-4-(trifluoromethyl)-1,3-thazole-5-carboxamide [Compound 91161]” was tested, and the “TI (TC50/IC50)” value was 12.01 and the IC50 was 1940 nM.
For `CCc1c(C(=O)Nc2ccccc2)c(C)nc2sc(C(N)=O)c(N)c12` [Compound 75168, 3-amino-4-ethyl-6-methyl-N˜5˜-phenylthieno[2,3-b]pyridine-2,5-dicarboxamide], the “TI (TC50/IC50)” value was greater than 12.52 and the IC50 [1] was 2140 nM.
`COc1ccc2cc3c(N)n[nH]c3nc2c1` [Compound 89246, 7-methoxy-1H-pyrazolo[3,4-b]quinolin-3-ylamine] was tested, and the “TI (TC50/IC50)” value was 69.57 and the IC50 [1] was 470 nM.
With `CCc1c(C)nc2sc(C(N)=O)c(N)c2c1C` [Compound 103833, 3-amino-5-ethyl-4,6-dimethylthieno[2,3-b]pyridine-2-carboxamide] the “TI (TC50/IC50)” value was greater than 129.66 and the IC50 [1] was 290 nM.
With `COc1ccc2nc(C(F)(F)F)c(C#N)c(N)c2c1` [Compound 104366, 4-amino-6-methoxy-2-(trifluoromethyl)-3-quinolinecarbonitrile] the “TI (TC50/IC50)” value was 38.91 and the IC50 [1] was 640 nM.
For `CS(=O)(=O)c1ncc(-c2ccc(Br)cc2)cn1` [Compound 107129, -(4-bromophenyl)-2-(methylsulfonyl)pyrimidine], the “TI (TC50/IC50)” value was 3.48 and the IC50 [1] was 1800 nM.
With `COc1cccc(NC(=O)c2cc(Cl)nnc2Cl)c1` [Compound 107740, 3,6-dichloro-N-(3-methoxyphenyl)-4-pyridazinecarboxamide] the “TI (TC50/IC50)” value was 94.00 and the IC50 [1] was 200 nM.
For `Fc1ccc(Nc2ncnc3ccccc23)cc1Cl` [Compound 109020, N-(3-chloro-4-fluorophenyl)-N-(4-quinazolinyl)amine], the “TI (TC50/IC50)” value was greater than 3.09 and the IC50 [1] was 13200 nM.

From patent US7875604B2, “Compounds that inhibit HIV particle formation” (University of Virginia Patent Foundation, priority 2004, dated 2011)
